Source: PubChem BioAssay AID330 (DTP/NCI, 2004)
“And” between values parts separate entries of the source, which are not always exact repeats. Equal values may be shown once. Inconclusive results and toxic doses are left out. Rule for the calls: active = survival T/C of 150% or more; inactive = T/C below 125% in these data.

Tested on: P388 leukemia ip, CD2F1 mice, survival T/C
Test: NCI In Vivo Anticancer Drug Screen. Data for tumor model P388 Leukemia (intraperitoneal) in CD2F1 (CDF1) mice
Conditions: endpoint: median survival time, higher = longer survival
Outline: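 Mice carrying the transplanted tumor received test compound or vehicle. Survival was recorded in each group, and the value is the treated-group measurement divided by that of the vehicle-treated control group.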

[1] = dose: 25.0 mg/kg/injection, schedule: Q01DX009 (ip), vehicle: Klucel (hydroxypropylcellulose) (HPC)
[2] = dose: 50.0 mg/kg/injection, schedule: Q01DX009 (ip), vehicle: Klucel (hydroxypropylcellulose) (HPC)
[3] = dose: 100.0 mg/kg/injection, schedule: Q01DX009 (ip), vehicle: Klucel (hydroxypropylcellulose) (HPC)
[4] = dose: 200.0 mg/kg/injection, schedule: Q01DX009 (ip), vehicle: Klucel (hydroxypropylcellulose) (HPC)
[5] = dose: 60.0 mg/kg/injection, schedule: Q01DX005 (ip), vehicle: saline with Tween-80
[6] = dose: 120.0 mg/kg/injection, schedule: Q01DX005 (ip), vehicle: saline with Tween-80
[7] = dose: 240.0 mg/kg/injection, schedule: Q01DX005 (ip), vehicle: saline with Tween-80
[8] = dose: 100.0 mg/kg/injection, schedule: Q04DX003 (ip), vehicle: saline with Tween-80
[9] = dose: 200.0 mg/kg/injection, schedule: Q04DX003 (ip), vehicle: saline with Tween-80
[10] = dose: 50.0 mg/kg/injection, schedule: Q01DX009 (ip), vehicle: saline with Tween-80
[11] = dose: 100.0 mg/kg/injection, schedule: Q01DX009 (ip), vehicle: saline with Tween-80
[12] = dose: 200.0 mg/kg/injection, schedule: Q01DX009 (ip), vehicle: saline with Tween-80
[13] = dose: 12.5 mg/kg/injection, schedule: Q01DX009 (ip), vehicle: Klucel (hydroxypropylcellulose) (HPC)
[14] = dose: 3.12 mg/kg/injection, schedule: Q01DX009 (ip), vehicle: saline
[15] = dose: 50.0 mg/kg/injection, schedule: Q04DX003 (ip), vehicle: saline with Tween-80

Measured: T/C

Nn1c(=O)[nH][nH]c1=O
inactive: [1] 93 % of control | [2] 104 % of control | [3] 96 % of control | [4] 93 % of control

Cc1ccccc1C(C)C[n+]1cccc(C)c1C (stereo unspecified)
inactive: dose: 6.25 mg/kg/injection, schedule: Q01DX005 (ip), vehicle: saline with Tween-80 101 % of control | dose: 12.5 mg/kg/injection, schedule: Q01DX005 (ip), vehicle: saline with Tween-80 101 % of control

O=C(O)C(=O)O.OO.OO.OO.[Nb]
inactive: dose: 100.0 mg/kg/injection, schedule: Q01DX009 (ip), vehicle: saline 123 % of control | dose: 100.0 mg/kg/injection, schedule: Q04DX003 (ip), vehicle: saline 100 % of control

O=C(NNC(=O)c1ccncc1)Nc1cccc(Cl)c1
inactive: [2] 95 % of control | [3] 96 % of control

Cc1cc(C)cc(-n2cccc2C(=O)O)c1
inactive: [5] 93 % of control | [6] 99 % of control | [7] 100 % of control

O=C1c2ccccc2-c2nc3ncccc3cc21
inactive: [8] 98 % of control | [9] 102 % of control | dose: 400.0 mg/kg/injection, schedule: Q04DX003 (ip), vehicle: saline with Tween-80 102 % of control

CN(C)C=Nc1ccccc1C#N
inactive: [10] 105 % of control | [11] 106 % of control | [12] 97 % of control

CC(C)c1ccccc1S(=O)c1ccccc1C(C)(C)O (stereo unspecified)
inactive: [2] 98 % of control | [3] 102 % of control | [4] 95 % of control

O=NNc1cnc2ccccc2n1
inactive: dose: 3.12 mg/kg/injection, schedule: Q01DX009 (ip), vehicle: water 106 % of control | dose: 6.25 mg/kg/injection, schedule: Q01DX009 (ip), vehicle: water 103 % of control | dose: 12.5 mg/kg/injection, schedule: Q01DX009 (ip), vehicle: water 106 % of control and 112 % of control | dose: 25.0 mg/kg/injection, schedule: Q01DX009 (ip), vehicle: water 120 % of control and 121 % of control | dose: 50.0 mg/kg/injection, schedule: Q01DX009 (ip), vehicle: water 113 % of control and 87 % of control

N#CN=[N+]([O-])c1ccccc1Cl
inactive: dose: 3.12 mg/kg/injection, schedule: Q01DX009 (ip), vehicle: Klucel (hydroxypropylcellulose) (HPC) 100 % of control | dose: 6.25 mg/kg/injection, schedule: Q01DX009 (ip), vehicle: Klucel (hydroxypropylcellulose) (HPC) 107 % of control | dose: 6.25 mg/kg/injection, schedule: Q04DX003 (ip), vehicle: Klucel (hydroxypropylcellulose) (HPC) 91 % of control | [13] 109 % of control | dose: 12.5 mg/kg/injection, schedule: Q04DX003 (ip), vehicle: Klucel (hydroxypropylcellulose) (HPC) 100 % of control | dose: 25.0 mg/kg/injection, schedule: Q04DX003 (ip), vehicle: Klucel (hydroxypropylcellulose) (HPC) 91 % of control

NS(=O)(=O)/C(Br)=C/c1ccccc1
inactive: [10] 90 % of control | [11] 118 % of control | [12] 98 % of control

C(=P(c1ccccc1)(c1ccccc1)c1ccccc1)[P+](c1ccccc1)(c1ccccc1)c1ccccc1
inactive: [14] 111 % of control | dose: 3.12 mg/kg/injection, schedule: Q01DX009 (ip), vehicle: suspension in saline 111 % of control | dose: 6.25 mg/kg/injection, schedule: Q01DX009 (ip), vehicle: saline 104 % of control | dose: 6.25 mg/kg/injection, schedule: Q01DX009 (ip), vehicle: suspension in saline 112 % of control | dose: 12.5 mg/kg/injection, schedule: Q01DX009 (ip), vehicle: suspension in saline 119 % of control

COc1cc(Cc2n[nH]c(=S)n2-c2ccccc2)c(S(N)(=O)=O)cc1OC
inactive: [5] 102 % of control | [6] 95 % of control | [7] 94 % of control

c1ccc(-c2ccc(-c3csnn3)cc2)cc1
inactive: dose: 12.5 mg/kg/injection, schedule: Q01DX009 (ip), vehicle: saline with Tween-80 100 % of control | dose: 25.0 mg/kg/injection, schedule: Q01DX009 (ip), vehicle: saline with Tween-80 95 % of control | [10] 91 % of control and 94 % of control | [11] 91 % of control | [12] 88 % of control

C[N+](C)([O-])CCCNc1c2ccccc2nc2cccc([N+](=O)[O-])c12
inactive: dose: 0.79 mg/kg/injection, schedule: Q01DX009 (ip), vehicle: saline 108 % of control | dose: 1.56 mg/kg/injection, schedule: Q01DX009 (ip), vehicle: saline 110 % of control | [14] 117 % of control and 118 % of control

CC(C)C(NC(=O)OC(C)(C)C)C(=O)ON1C(=O)CCC1=O (stereo unspecified)
inactive: [10] 118 % of control | [11] 111 % of control | [12] 99 % of control

Cc1ccccc1C1SCC(=O)N1c1ccccn1 (stereo unspecified)
inactive: [10] 104 % of control | [11] 101 % of control | [12] 95 % of control

CC(C)(C)[Si](C)(C)OCc1ccccc1N1C(=O)C(NC(=O)Cc2ccccc2)C1/C=C/c1ccccc1 (stereo unspecified)
inactive: [10] 99 % of control | [11] 94 % of control | [12] 92 % of control

O=C(NC(Cc1ccc(OC(=O)OCc2ccccc2)cc1)C(=O)O)OCc1ccccc1 (stereo unspecified)
inactive: dose: 50.0 mg/kg/injection, schedule: Q01DX005 (ip), vehicle: saline with Tween-80 99 % of control | dose: 100.0 mg/kg/injection, schedule: Q01DX005 (ip), vehicle: saline with Tween-80 90 % of control | dose: 200.0 mg/kg/injection, schedule: Q01DX005 (ip), vehicle: saline with Tween-80 101 % of control

COc1nc(N)c(NC(C)=O)c(=O)n1C
inactive: dose: 60.0 mg/kg/injection, schedule: Q01DX005 (ip), vehicle: saline 96 % of control | dose: 120.0 mg/kg/injection, schedule: Q01DX005 (ip), vehicle: saline 96 % of control | dose: 240.0 mg/kg/injection, schedule: Q01DX005 (ip), vehicle: saline 93 % of control

CC(=O)OC(NC(=O)c1cc(C)cc(C)c1)c1ccncc1 (stereo unspecified)
inactive: dose: 50.0 mg/kg/injection, schedule: Q01DX005 (ip), vehicle: Klucel (hydroxypropylcellulose) (HPC) 97 % of control | dose: 100.0 mg/kg/injection, schedule: Q01DX005 (ip), vehicle: Klucel (hydroxypropylcellulose) (HPC) 86 % of control

O=C(NC1CCCCC1)C(=NC1CCCCC1)c1cc(Cl)c(Cl)c(Cl)c1Cl
inactive: [15] 98 % of control | [8] 98 % of control | [9] 87 % of control

CC(C(=O)O)c1ccc2oc(-c3ccc(Cl)cc3)nc2c1 (stereo unspecified)
inactive: dose: 50.0 mg/kg/injection, schedule: Q01DX009 (ip), vehicle: suspension in saline 104 % of control | dose: 100.0 mg/kg/injection, schedule: Q01DX009 (ip), vehicle: suspension in saline 100 % of control | dose: 200.0 mg/kg/injection, schedule: Q01DX009 (ip), vehicle: suspension in saline 100 % of control

COc1ccc(C(=O)/C=N/O)cc1
inactive: dose: 25.0 mg/kg/injection, schedule: Q04DX003 (ip), vehicle: saline with Tween-80 95 % of control | [15] 95 % of control | [8] 86 % of control

C=C1C(=O)OC2(C)CCC1CC1OC1(C)CCC=C(C)CCC2O (stereo unspecified)
inactive: [13] 98 % of control | [1] 101 % of control | [2] 106 % of control | [3] 101 % of control | [4] 106 % of control

O=C(/C=C/c1c(-c2ccccc2)[nH]c2ccccc12)c1ccccc1[N+](=O)[O-]
inactive: [5] 95 % of control | [6] 96 % of control | [7] 92 % of control
